For data set [1], the system named is Form I DNA. The experiment in a line: Cleavage of Form I DNA under mildly alkaline conditions. The class given is biochemical. The note with it: mildly alkaline (pH 8.5) conditions. From the text: It is believed that the DNA damage due to 2.12 is insensitive to either the addition of radical scavengers or the exclusion of oxygen. Additionally, treatment of a methanolic solution of 2.12 with aqueous NaOH led to the production of the bis(enol ether) 2.13 as depicted in FIG. 4.

Data set [2] deals with B16 murine melanoma cells. The experiment in a line: Growth inhibition of B16 murine melanoma cells, MTT assay. Conditions: Mus musculus, B16, read-out: IC50, growth inhibition. The class given is cell-based. The protocol: The growth inhibitory activities of bis(propargylic) sulfone crown ethers 2.47 and 2.48 against B16 murine melanoma cells were determined calorimetrically with an MTT assay conducted by the Institute for Drug Development at the Cancer Research and Therapy Center in San Antonio, Tex.
For orientation: Formazan colour is commonly taken as a measure of viable cells.

These results are taken from patent US20020155443A1, “Metal binding DNA interactive compounds” (priority 2000, published 2002).

For orientation: melting point means the temperature of the solid-liquid transition. `O=S1(=O)CC#CCOc2ccccc2OCC#CC1` [Compound 2.10]: the melting point fell in the range of 176.5 to 177.5 °C.
For the compound `O=S1(=O)CC#CCOCCOCCOCCOCC#CC1` [Compound 2.12], in data set [1], the “cleavage of Form I DNA” value is given as “dose-dependent cleavage”.
For `CCOC(=O)c1cccc(CS(=O)(=O)CC#CCO)c1` [Compound 3.3], the melting point is 79.5 to 80.5 °C.
The term IC50 denotes the point on the concentration scale where inhibition reaches its midpoint. On to `C1#CCOCCOCCOCCOCCOCCOCC#C/C=C\1` [Compound 4.7], for which the IC50 in data set [2] was determined as 68 µM.
